The numbers were not newly measured in patent US20110166946A1, “METHOD OF PROMOTING AND SELLING COFFEE” (NESTEC S.A., priority 2008, published 2011), which cites them from elsewhere.

For data set [1] the following is noted: in vivo.
The conditions of data set [2]: preclinical models.
The conditions of data set [3]: after 50 μM chlorogenic acid intestinal perfusion, rat.

The structures appear in SMILES notation. Some results are limits rather than exact numbers.

Turning to `Oc1cc(O)c2c(c1)O[C@H](c1cc(O)c(O)c(O)c1)[C@H](O)C2` [EGC, (−)-Epigallocatechin], in data set [1], the “time of appearance in blood after ingestion” value is reported as at most 30 min and the “time to reach baseline level after ingestion” value is listed as at most 12 h.

With `O=C(/C=C/c1ccc(O)c(O)c1)O[C@@H]1C[C@](O)(C(=O)O)C[C@@H](O)[C@H]1O` [chlorogenic acid, 5-caffeoylquinic acid], the “time of appearance of conjugated forms of CA in plasma after ingestion” value in data set [2] was 30 min. For the same compound, in data set [3], the “isoferulic acid detected in plasma” value was 0.12 µM.
